From patent US9808434B2, “Compound for treating cancer and diabetes” (CITY OF HOPE, priority 2011, dated 2017)
Entries after “also recorded” stand apart in the source; their conditions may differ.

Tests used:
H358 lung cancer = type: in vivo; details: day 60; 4 mg/kg b.w. oral alternate day; control 2.02±0.3 g
Method: For lung cancer studies, twelve 10-weeks-old mice were divided into two groups of 6 animals (treated with corn oil (vehicle), and COH-SR4 compound 4 mg/kg b.w.). All animals were injected with 2×10^6 H358 cells suspensions in 100 μL of PBS, subcutaneously into one flank of each mouse. At the same time, animals were randomized treatment groups as well as control groups. Treatment was started 10 days after the implantation to see palpable tumor growth. Treatment consisted of 0.1 mg of COH-SR4/m ice in 200 μL corn oil by oral gavage alternate day. Control groups were treated with 200 μL corn oil by oral gavage alternate day. Animals were examined daily for signs of tumor growth. Tumors were measured in two dimensions using calipers. Photographs of animals were taken at day 1, day 10, day 14, day 18, day 30, and day 60 after subcutaneous injection.
Hsd: Athymic nude nu/nu mice obtained from Harlan, Indianapolis, Ind. were used for the oral administration of COH-SR4 on lung cancer progression in in-vivo xenograft model. Twelve 10-weeks-old mice were divided into two groups of 6 animals (treated with corn oil (vehicle), and COH-SR4 4 mg/kg b.w.). […] Animals were examined daily for signs of tumor growth and body weights were recorded. […] Tumors were measured in two dimensions using calipers. […] The absorption of orally administered COH-SR4 in mice was assessed.

[1] = Metabolic effects in HFD obese mice; type: in vivo, mouse
Method: All animal experiments were carried out in accordance with the protocols approved by the Institutional Animal Care and Use Committee of the City of Hope. Nine-week old male C57BL/6J mice fed on high fat diet (HFD, 60% fat) and 10-week old db/db mice were given COH-SR4 (5 mg/kg B.W.) or vehicle (corn oil) via oral gavage every other day for six and five weeks, respectively. Oral glucose tolerance test was performed on animals after an overnight fast. All other metabolic parameters were measured at the end of study. Liver samples were stained with H&E and Oil Red O.
All data represented are mean±SEM. *P<0.05, **P<0.01 vs. LFD or db/+; ^#P<0.05, ^##P<0.01 vs. HFD or db/db. n=12 animals per group for HFD mice. LFD=low fat diet (lean), HFD=high fat diet (obese). n=8 animals per group for db/db mice.
Representative mice in each treatment group (LFD, HFD, and HFD treated with COH-SR4 (HFD+SR4)) depicted gross images of whole body shape (top) and abdominal fat (bottom) (FIG. 85A).

U251 = assay: Glioma ATP viability assay, U251; type: cell-based; details: Homo sapiens, U-251, 72 h
Method: (§1) Cells of each cell line (U251, U87, PBT-017, PBT018, PBT003 and PBT028) were treated with various concentrations (0˜100 μM) of COH-SR4 for 72 hours. Cell viabilities were determined by ATP viability assays. Data were represented as a ratio to vehicle (DMSO) control, and plotted as mean±SEM (n=12) obtained from 2˜3 experiments (FIG. 34A).
as §1, with “(U87, U251,” for “(U251, U87, PBT-017, PBT018,”, “PVT-017)” for “PBT028)”, “2-3” for “2˜3”, “34B).” for “34A).”
Cells of each cell line were treated with various concentrations (0˜100 μM) of COH-SR4 or various concentrations (0˜1000 μM) of TMZ for 72 hours. Cell viabilities were determined by ATP viability assays. Data were represented as a ratio to untreated cells as control, and plotted as mean±SEM (n=12) obtained from 2˜3 experiments (FIGS. 43A-B).

3T3-L1 cells = assay: Intracellular triglyceride contents, AdipoRed Assay; type: cell-based, mouse; details: 7 days in DM + compound
Method: Intracellular triglyceride contents were measured using AdipoRed Assay™ and the results were shown in relative fluorescence units (RFU) in FIG. 5.
3T3-L1 preadipocytes cells were treated with differentiating media (DM) with COH-SR4 (1 μM, 3 μM, or 5 μM) or without for 7 days. […] As used in FIG. 9C, U=undifferentiated, D=differentiated with cocktail media.

p38 MAPK, ERK1/2, JNK = assay: MAPK/ERK signaling in melanoma cells, Western blotting; type: cell-based; details: 0-10 μM; 5 μM 0-24 h
Method: Cell or tissue proteins were extracted with cell lysis buffer (Cell Signaling Technology) and protein concentration was determined using the DC Protein Assay kit (Bio-Rad, Hercules, Calif., USA). Equal amount of proteins (˜40 μg) were loaded onto 4-15% Criterion TGX gels (Bio-Rad, Hercules, Calif.), resolved by SDS-PAGE electrophoresis, and then transferred onto nitrocellulose membranes for immunoblotting. Membranes were blocked with 5% skimmed milk in Tris-buffered saline containing 0.05% Tween 20 before incubation overnight at 4° C. with desired primary antibodies. Immuno-reactive proteins were visualized by peroxidase-labeled secondary antibodies and ECL system (Western Lightning Chemiluminescence Reagent, Perkin-Elmer, Mass., USA). […] Band intensities were quantified using a densitometer (Quantity One, Bio-Rad, Hercules, Calif.).
To investigate whether COH-SR4 affected the MAPK/ERK signaling pathway in human melanoma, the phosphorylation levels of p38 MAPK (T^180/Y^182), ERK1/2 (T^202/Y^204), and pJNK (T^183/Y^185), in A101D, A2058, SK-Mel-5, SK-MEL-28 and B16-F0 melanoma cells were examined after COH-SR4 treatment at various doses (0-10 μM) (FIG. 76A) or at a dose of 5 μM at various time points (0-24 h) (FIG. 76B). Total proteins were isolated and analyzed by Western blotting.

SMILES: O=C(Nc1cc(Cl)cc(Cl)c1)Nc1cc(Cl)cc(Cl)c1 [COH-SR4, 1,3-bis(3,5-dichlorophenyl) urea]
- tumor weight (H358 lung cancer): 0.77 ± 0.2 g
- body weight ([1]; 5 mg/kg oral every other day, six weeks): decreased body weight
- glucose tolerance ([1]; six weeks): improved glucose tolerance
- hepatic lipid accumulation (Oil Red O, H&E) ([1]; six weeks): little hepatic lipid accumulation
- plasma insulin concentration ([1]; six weeks): lower plasma insulin concentration
- plasma lipids ([1]; six weeks): significantly reduced plasma lipids
- food intake ([1]; vs control HFD mice): No significant difference in food intake
- IC50 (U251; Table 1): 2100 nM
- IC50 (U251; Table 2): 2000 nM
- intracellular triglyceride contents (AdipoRed Assay) (3T3-L1 cells): decreased intracellular triglyceride contents; also recorded: dose-dependently reduced
- phosphorylation of p38 MAPK and ERK1/2 (p38 MAPK, ERK1/2, JNK): dose- and time dependent increase in the levels of phosphorylation of p38 MAPK (T^180/Y^182) and ERK1/2 (T^202/Y^204)
